From publication PMC12188386, “Selective CBP/EP300 Bromodomain Inhibitors: Novel Epigenetic Tools to Counter TNF-α-Driven Inflammation” (JACS Au, 2025)

What was measured:
[1] = system: IGROV1; assay: NCI-60 one-dose screen; type: cell-based, human; settings: 10 µM, 48 h, Ovarian Cancer
Experimental: (§1) Adapted from NCI-60 Screening Methodology, one-dose screen:20 Briefly, human tumor cell lines, grown in RPMI 1640 containing 5% FBS and 2 mM L-glutamine, were plated in 96 well plates at densities ranging from 5,000 to 40,000 cells/well 24 h prior to addition of test compounds (here 10 μM 2). 400x solutions of test compounds were prepared in DMSO, then diluted to 2x in medium supplemented with 50 μg/mL gentamicin. 100 μl of this 2x stock was added to cells previously plated in 100 μl medium, resulting in the desired final compound concentration. Cells were fixed in situ with cold TCA: untreated cells at the time of compound addition (Tz) and treated cells 48 h after addition of compound (Ti). Cells were washed, then su f rh damine s uti n μ at . w/v in acetic acid was added to each well and incubated for 10 minutes at room temperature. After washing again, the plates were air dried and bound stain solubilized with 10 mM Trizma base before absorbance was […]
(§2) Percentage growth (%Growth) was calculated as follows:
(§3) when Ti ≥ Tz, %Growth = Ti − Tz x 100 where Ti = absorbance from compound treated cells, Tz = absorbance from untreated cells at time zero, and C = absorbance from control (DMSO) treated cells. […]

[2] = system: SNB-75; assay: NCI-60 one-dose screen; type: cell-based, human; settings: 10 µM, 48 h, CNS Cancer
Experimental: as §1, §2, §3

[3] = system: OVCAR-3; assay: NCI-60 one-dose screen; type: cell-based, human; settings: 10 µM, 48 h, Ovarian Cancer
Experimental: as §1, §2, §3

[4] = system: SR; assay: NCI-60 one-dose screen; type: cell-based, human; settings: 10 µM, 48 h, Leukemia
Experimental: as §1, §2, §3

[5] = system: SK-MEL-28; assay: NCI-60 one-dose screen; type: cell-based, human; settings: 10 µM, 48 h, Melanoma
Experimental: as §1, §2, §3

[6] = system: MALME-3M; assay: NCI-60 one-dose screen; type: cell-based, human; settings: 10 µM, 48 h, Melanoma
Experimental: as §1, §2, §3

[7] = system: UO-31; assay: NCI-60 one-dose screen; type: cell-based, human; settings: 10 µM, 48 h, Renal Cancer
Experimental: as §1, §2, §3

[8] = system: NCI-H23; assay: NCI-60 one-dose screen; type: cell-based, human; settings: 10 µM, 48 h, Non-Small Cell Lung Cancer
Experimental: as §1, §2, §3

[9] = system: SF-295; assay: NCI-60 one-dose screen; type: cell-based, human; settings: 10 µM, 48 h, CNS Cancer
Experimental: as §1, §2, §3

[10] = system: OVCAR-8; assay: NCI-60 one-dose screen; type: cell-based, human; settings: 10 µM, 48 h, Ovarian Cancer
Experimental: as §1, §2, §3

[11] = system: ACHN; assay: NCI-60 one-dose screen; type: cell-based, human; settings: 10 µM, 48 h, Renal Cancer
Experimental: as §1, §2, §3

[12] = system: TK-10; assay: NCI-60 one-dose screen; type: cell-based, human; settings: 10 µM, 48 h, Renal Cancer
Experimental: as §1, §2, §3

[13] = system: HOP-92; assay: NCI-60 one-dose screen; type: cell-based, human; settings: 10 µM, 48 h, Non-Small Cell Lung Cancer
Experimental: as §1, §2, §3

[14] = system: BT-549; assay: NCI-60 one-dose screen; type: cell-based, human; settings: 10 µM, 48 h, Breast Cancer
Experimental: as §1, §2, §3

[15] = system: HS 578T; assay: NCI-60 one-dose screen; type: cell-based, human; settings: 10 µM, 48 h, Breast Cancer
Experimental: as §1, §2, §3

[16] = system: A549/ATCC; assay: NCI-60 one-dose screen; type: cell-based, human; settings: 10 µM, 48 h, Non-Small Cell Lung Cancer
Experimental: as §1, §2, §3

[17] = system: PC-3; assay: NCI-60 one-dose screen; type: cell-based, human; settings: 10 µM, 48 h, Prostate Cancer
Experimental: as §1, §2, §3

[18] = system: HT29; assay: NCI-60 one-dose screen; type: cell-based, human; settings: 10 µM, 48 h, Colon Cancer
Experimental: as §1, §2, §3

[19] = system: A498; assay: NCI-60 one-dose screen; type: cell-based, human; settings: 10 µM, 48 h, Renal Cancer
Experimental: as §1, §2, §3

[20] = system: EKVX; assay: NCI-60 one-dose screen; type: cell-based, human; settings: 10 µM, 48 h, Non-Small Cell Lung Cancer
Experimental: as §1, §2, §3

[21] = system: MOLT-4; assay: NCI-60 one-dose screen; type: cell-based, human; settings: 10 µM, 48 h, Leukemia
Experimental: as §1, §2, §3

[22] = system: RXF 393; assay: NCI-60 one-dose screen; type: cell-based, human; settings: 10 µM, 48 h, Renal Cancer, values <0 indicate lethality
Experimental: as §1, §2, §3

[23] = system: NCI-H460; assay: NCI-60 one-dose screen; type: cell-based, human; settings: 10 µM, 48 h, Non-Small Cell Lung Cancer
Experimental: as §1, §2, §3

[24] = system: NCI/ADR-RES; assay: NCI-60 one-dose screen; type: cell-based, human; settings: 10 µM, 48 h, Ovarian Cancer
Experimental: as §1, §2, §3

[25] = system: MCF7; assay: NCI-60 one-dose screen; type: cell-based, human; settings: 10 µM, 48 h, Breast Cancer
Experimental: as §1, §2, §3

[26] = system: OVCAR-5; assay: NCI-60 one-dose screen; type: cell-based, human; settings: 10 µM, 48 h, Ovarian Cancer
Experimental: as §1, §2, §3

[27] = system: immune cell recruitment to the popliteal lymph node; assay: TNF-α induced inflammation model, flow cytometry of pLN; type: in vivo, mouse; settings: mice, flow cytometry 5 h post-injection of rmTNF-α, vs control group
[28] = system: leukemia, melanoma and breast cancer cell lines; assay: NCI-60 antiproliferation screen; type: cell-based, human; settings: 10 µM
Experimental: as §1, §2, §3

[29] = system: TNF-α-induced IL-8 secretion from THP-1 cells; assay: cytokine protein measurement (LEGENDPlex); type: cell-based, human; settings: 10 ng/mL TNF-α, 1 μM compound
Experimental: For cytokine expression determination, 5x10^5 THP-1 cells were plated on 12 well plates the day prior to treatment with 10 ng/mL recombinant human TNF -α (aa 77-233) protein (R&D systems, 10291 -TA) and compounds at a final concentration of 0.1 % DMSO. In all cases, total […]
Cytokine protein measurements
THP-1 cells were plated and treated as for the quantitative RT -PCR, then the cell culture medium was harvested by pelleting the cells (300g, 3min) and taking the supernatant .
Cytokine protein concentrations were determined using the LEGENDPlexTM Human Inflammation Panel 1 (BioLegend) assay with 25 µL of culture medium following the manufacturer’s instructi ns. amp es were ana zed f w c t metr n an rtessa Biosciences), and data was analyzed using LEGENDPlex software (BioLegend).

## Cc1cc2c(NC(=O)c3cc(NC(=O)c4ccco4)cc(-c4ccn(C)n4)c3)cccc2nn1 [Compound 2]
[1]
  %Growth: 54%
[2]
  %Growth: 27%
[3]
  %Growth: 23%
[4]
  %Growth: 19%
[5]
  %Growth: 68%
[6]
  %Growth: 40%
[7]
  %Growth: 43%
[8]
  %Growth: 71%
[9]
  %Growth: 42%
[10]
  %Growth: 67%
[11]
  %Growth: 73%
[12]
  %Growth: 78%
[13]
  %Growth: 63%
[14]
  %Growth: 33%
[15]
  %Growth: 19%
[16]
  %Growth: 61%
[17]
  %Growth: 54%
[18]
  %Growth: 21%
[19]
  %Growth: 91%
[20]
  %Growth: 63%
[21]
  %Growth: 53%
[22]
  %Growth: -5%
[23]
  %Growth: 18%
[24]
  %Growth: 91%
[25]
  %Growth: 22%
[26]
  %Growth: 89%
[27]
  recruitment of lymphocytes (T and B cells), dendritic cells and neutrophils to the pLN: significantly inhibited the recruitment of lymphocytes
[28]
  growth of cancer cell lines (NCI-60), in words: strongly inhibit the growth of leukemia, melanoma and breast cancer cell lines
[29]
  TNF-α-induced IL-8 protein secretion: significantly reducing its TNF-α-induced secretion
